According to PubChem BioAssay (NCI):
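Each compound was tested at five concentrations against cells in 96-well plates for 48 hours. The concentration for full growth arrest is given as TGI.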

Experiments:
Experiment in all cases: DTP human tumour cell line panel, 48 h
[1] = system: 786-0 renal
[2] = system: A498 renal
[3] = system: ACHN renal
[4] = system: BT-549 breast
[5] = system: CAKI-1 renal
[6] = system: COLO 205 colon
[7] = system: DU-145 prostate
[8] = system: EKVX NSCLC
[9] = system: HCC-2998 colon
[10] = system: HCT-116 colon
[11] = system: HCT-15 colon
[12] = system: HL-60(TB) leukemia
[13] = system: HOP-62 NSCLC
[14] = system: HOP-92 NSCLC
[15] = system: HS 578T breast
[16] = system: HT29 colon
[17] = system: IGROV1 ovarian
[18] = system: K-562 leukemia
[19] = system: KM12 colon
[20] = system: LOX IMVI melanoma
[21] = system: MALME-3M melanoma
[22] = system: MCF7 breast
[23] = system: MDA-MB-231 breast
[24] = system: MDA-MB-435
[25] = system: MDA-N
[26] = system: MOLT-4 leukemia
[27] = system: NCI-H23 lung
[28] = system: NCI-H460 lung
[29] = system: NCI-H522 lung
[30] = system: NCI/ADR-RES ovarian
[31] = system: OVCAR-3 ovarian
[32] = system: OVCAR-4 ovarian
[33] = system: OVCAR-5 ovarian
[34] = system: OVCAR-8 ovarian
[35] = system: PC-3 prostate
[36] = system: RPMI-8226 leukemia
[37] = system: RXF 393 renal
[38] = system: SF-268 CNS
[39] = system: SF-295 CNS
[40] = system: SK-MEL-2 melanoma
[41] = system: SK-MEL-28 melanoma
[42] = system: SK-MEL-5 melanoma
[43] = system: SK-OV-3 ovarian
[44] = system: SN12C renal
[45] = system: SNB-75 CNS
[46] = system: SW-620 colon
[47] = system: T-47D breast
[48] = system: TK-10 renal
[49] = system: U251 CNS
[50] = system: UACC-257 melanoma
[51] = system: UACC-62 melanoma
[52] = system: A549 NSCLC
[53] = system: CCRF-CEM leukemia
[54] = system: M14 melanoma
[55] = system: NCI-H226 lung
[56] = system: SF-539 CNS
[57] = system: UO-31 renal
[58] = system: SNB-19 CNS

`OC1CCCN(C2(c3cccs3)CCCCC2)C1` (stereo not drawn) showed a TGI [1] of over 100 µM, a TGI [2] of over 100 µM and a TGI [3] of over 100 µM. The TGI [4] was over 100 µM, the TGI [5] was over 100 µM and the TGI [6] was over 100 µM. It also gave a TGI [7] of over 100 µM, a TGI [8] of over 100 µM and a TGI [9] of over 100 µM. The TGI [10] was over 100 µM, the TGI [11] was over 100 µM and the TGI [12] was over 100 µM. The TGI [13] was over 100 µM, the TGI [14] was over 100 µM and the TGI [15] was over 100 µM. For the same compound, the TGI [16] was over 100 µM, the TGI [17] was over 100 µM and the TGI [18] was over 100 µM. It also gave a TGI [19] of over 100 µM, a TGI [20] of over 100 µM and a TGI [21] of over 100 µM. For the same compound, the TGI [22] was over 100 µM, the TGI [23] was over 100 µM and the TGI [24] was over 100 µM. For the same compound, the TGI [25] was over 100 µM, the TGI [26] was over 100 µM and the TGI [27] was over 100 µM. The TGI [28] was over 100 µM, the TGI [29] was over 100 µM and the TGI [30] was over 100 µM. The TGI [31] was over 100 µM, the TGI [32] was over 100 µM and the TGI [33] was over 100 µM. The TGI [34] was over 100 µM, the TGI [35] was over 100 µM and the TGI [36] was over 100 µM. For the same compound, the TGI [37] was over 100 µM, the TGI [38] was over 100 µM and the TGI [39] was over 100 µM. For the same compound, the TGI [40] was over 100 µM, the TGI [41] was over 100 µM and the TGI [42] was over 100 µM. For the same compound, the TGI [43] was over 100 µM, the TGI [44] was over 100 µM and the TGI [45] was over 100 µM. For the same compound, the TGI [46] was over 100 µM, the TGI [47] was over 100 µM and the TGI [48] was over 100 µM. For the same compound, the TGI [49] was over 100 µM, the TGI [50] was over 100 µM and the TGI [51] was over 100 µM.
`C[C@]12CC[C@@H]3c4cc(Br)c(O)c(Br)c4CC[C@H]3[C@@H]1CC(Br)C2=O` (stereo partly drawn) gave a TGI [1] of over 100 µM, a TGI [2] of 44.6 µM and a TGI [52] of 38.8 µM. It also gave a TGI [3] of 21.2 µM, a TGI [4] of 17.6 µM and a TGI [5] of 15.9 µM. It also gave a TGI [53] of 50.5 µM, a TGI [6] of over 100 µM and a TGI [7] of over 100 µM. The TGI [8] was 39.6 µM, the TGI [9] was 3.73 µM and the TGI [10] was over 100 µM. It also gave a TGI [11] of 10.1 µM, a TGI [12] of 7.52 µM and a TGI [14] of 45.6 µM. The TGI [15] was 82.4 µM, the TGI [16] was 10.7 µM and the TGI [17] was 23.6 µM. The TGI [18] was 13.6 µM, the TGI [19] was 15.8 µM and the TGI [20] was over 100 µM. For the same compound, the TGI [54] was over 100 µM, the TGI [21] was 34.2 µM and the TGI [22] was 29.9 µM. It also gave a TGI [23] of 75 µM, a TGI [24] of 21.6 µM and a TGI [25] of 43.5 µM. The TGI [26] was 9.36 µM, the TGI [55] was 26.6 µM and the TGI [28] was 18.8 µM. It also gave a TGI [30] of 39.5 µM, a TGI [32] of over 100 µM and a TGI [33] of 73.2 µM. For the same compound, the TGI [34] was 7.83 µM, the TGI [35] was 27.2 µM and the TGI [37] was 19.3 µM. It also gave a TGI [38] of 26.8 µM, a TGI [39] of 33.1 µM and a TGI [56] of 24.4 µM. The TGI [40] was 27.3 µM, the TGI [41] was 22.3 µM and the TGI [43] was 30.2 µM. For the same compound, the TGI [44] was 38.4 µM, the TGI [45] was 27.9 µM and the TGI [46] was 9.57 µM. For the same compound, the TGI [47] was over 100 µM, the TGI [48] was 29.4 µM and the TGI [49] was 12.7 µM. For the same compound, the TGI [50] was 33.5 µM, the TGI [51] was 14.8 µM and the TGI [57] was 9.03 µM.
Compound `NS(=O)(=O)c1ccc(NC(=S)/N=C/c2c(O)c3ccccc3oc2=O)cc1` has a TGI [1] of over 100 µM, a TGI [2] of 64.1 µM and a TGI [52] of over 100 µM. It also gave a TGI [3] of over 100 µM, a TGI [4] of over 100 µM and a TGI [5] of 62.4 µM. For the same compound, the TGI [53] was over 100 µM, the TGI [6] was over 100 µM and the TGI [7] was over 100 µM. It also gave a TGI [8] of over 100 µM, a TGI [9] of over 100 µM and a TGI [10] of over 100 µM. It also gave a TGI [11] of over 100 µM, a TGI [12] of over 100 µM and a TGI [13] of over 100 µM. It also gave a TGI [14] of 68.1 µM, a TGI [15] of 99.6 µM and a TGI [16] of over 100 µM. For the same compound, the TGI [17] was 97.1 µM, the TGI [18] was over 100 µM and the TGI [19] was over 100 µM. For the same compound, the TGI [20] was over 100 µM, the TGI [54] was over 100 µM and the TGI [22] was over 100 µM. It also gave a TGI [23] of 65 µM, a TGI [24] of over 100 µM and a TGI [25] of over 100 µM. The TGI [26] was over 100 µM, the TGI [55] was 61 µM and the TGI [27] was over 100 µM. For the same compound, the TGI [28] was over 100 µM, the TGI [29] was 88.6 µM and the TGI [30] was over 100 µM. For the same compound, the TGI [31] was over 100 µM, the TGI [32] was over 100 µM and the TGI [33] was over 100 µM. For the same compound, the TGI [34] was over 100 µM, the TGI [35] was over 100 µM and the TGI [36] was over 100 µM. For the same compound, the TGI [37] was 80.9 µM, the TGI [38] was over 100 µM and the TGI [39] was over 100 µM. For the same compound, the TGI [56] was over 100 µM, the TGI [40] was over 100 µM and the TGI [42] was 96.1 µM. For the same compound, the TGI [43] was over 100 µM, the TGI [44] was over 100 µM and the TGI [58] was 85.5 µM. The TGI [45] was 53.3 µM, the TGI [46] was over 100 µM and the TGI [47] was over 100 µM. The TGI [48] was over 100 µM, the TGI [49] was over 100 µM and the TGI [50] was over 100 µM. It also gave a TGI [51] of over 100 µM and a TGI [57] of 87.6 µM.
